Test results as given in PMC6270821, “ROS-Mediated Cytotoxic Effect of Copper(II) Hydrazone Complexes against Human Glioma Cells” (Molecules, 2014).

Legend:
[1] = test system: U87 (p53 wild-type glioblastoma multiforme) cells; test: MTT cytotoxicity assay, U87 cells; assay type: cell-based, human; settings: for IC50: MTT, 48 h treatment; for selectivity index (SI = IC50MRC5/IC50tumor cell), U87: U87 vs MRC5
Protocol: (§1) The in vitro cytotoxic effects of H2AcMe, H2BzMe and complexes 1 and 2 against wild type p53 U87 and mutant p53 T98 glioblastoma cells and against MRC-5 fibroblasts cells were tested using cisplatin as a positive control. To determine the IC50 (concentration that inhibits 50% of cell survival) values the cytotoxic effects were quantified using the 3-(4,5-dimethyl-2-thioazolyl)-2,5-diphenyl tetrazolium bromide (MTT) colorimetric assay. All tested compounds were cytotoxic against both glioma cell lines in a dose-dependent way. The IC50 values (see Table 1) were found in the micromolar range. Despite their cytotoxic activity, all compounds were less toxic to fibroblasts cells than cisplatin. CuCl2 evoked only mild cytotoxicity in all cell lineages with IC50 higher than 100 µM.
(§2) U87 (p53 wild-type glioblastoma multiforme) and T98 (p53 mutant glioblastoma multiforme) malignant human tumor cells and MRC5 (Human Fetal Lung Fibroblast) cells were obtained from the American Type Culture Collection (ATCC, Manassas, VA, USA). Cell lines were grown as monolayer in Dulbecco’s Modified Eagle’s Medium (DMEM, Gibco, Rockville, MD, USA), supplemented with 10% fetal bovine serum (Cultilab, Campinas, São Paulo, Brazil) and antibiotics (50 U/mL penicillin/50 […] streptomycin), in a humidified atmosphere air/CO2 (95%/5%) at 37 °C. Cells 80% confluents were used in all experiments. For all experiments, cells were seeded in 96-well plates, at a density of 1000 cells/well. After 24 h incubation cells were treated.
(§3) To determine the IC50 values the cytotoxic effects were quantified using the 3-(4,5-dimethyl-2-thioazolyl)-2,5-diphenyltetrazolium bromide (MTT) colorimetric assay. Briefly, cells were treated with increasing concentrations (10^−12, 10^−11, 10^−10, 10^−9, 10^−8, 10^−7, 10^−6, 10^−5, 10^−4 mol·L^−1) of either cisplatin (positive control) or test compounds (H2AcMe, H2BzMe, 1 and 2). The compounds were previously dissolved in dimethyl sulfoxide (DMSO) and the final concentrations were adjusted in DMEM in such manner that the final DMSO concentration was lower than 0.5%. Following 48 h treatment, MTT reagent was added to each well. Following another 4 h of incubation at 37 °C, DMSO was added to each well to dissolve formazan precipitate and absorbance was measured at 570 nm. Tests using DMSO (0.5% in DMEM) as negative control were carried out in parallel. All tests were performed in quadruplicates with full agreement between the results. Statistical analysis was carried out by the unpaired, one-tailed Student’s t testing using a p value of 0.05. A value of p < 0.05 was considered significant.

[2] = test system: T98 (p53 mutant glioblastoma multiforme) cells; test: MTT cytotoxicity assay, T98 cells; assay type: cell-based, human; settings: for IC50: MTT, 48 h treatment; for selectivity index (SI = IC50MRC5/IC50tumor cell), T98: T98 vs MRC5
Protocol: as §1, §2, §3

EB-CT-DNA = test: Competitive binding with EB bound to CT-DNA (fluorescence); parameters: species or system calf; settings: for apparent binding constant Kapp (EB-CT-DNA): KEB 1.0 × 10^7 M^−1, [EB] = 10 µM; for number of binding sites n (EB-CT-DNA): Scatchard equation; for Stern-Volmer quenching constant Ksv (EB-CT-DNA) / binding constant K (EB-CT-DNA, Scatchard) / hypochromism in the EB-CT-DNA emission band at 602 nm: Tris-HCl pH 7.20, 25 °C; for hypochromism in the EB-CT-DNA emission band at 602 nm: complex up to 100 µM
Protocol: Steady-state competitive binding experiments using complexes 1 and 2were undertaken to get further proof for the binding of the complexes to DNA. The technique is based on the decrease of EB fluorescence resulting from the competitive displacement of EB from a DNA groove by a compound that competes for the same site.
The quenching data were analyzed by the Stern-Volmer equation: F0/F = Ksv[Q] + 1 (2) where F0 is the emission intensity in the absence of quencher, F is the emission intensity in the presence of quencher, Ksv is the quenching constant, and [Q] is the quencher concentration. The Ksv value is obtained as a slope from the plot of F0/F vs. [Q] [34].
The apparent binding constants (Kapp) were calculated from Equation (3): KEB [EB] = Kapp [complex] (3) where KEB is 1.0 × 10^7 M^−1, [EB] = 10 µM, and [complex] is the complex concentration when the fluorescence intensity of EB is 50%. This value is obtained from the plot F0/F vs. [complex] when F0/F = 2.
The binding constants (K) were calculated by the Scatchard Equation (4) (see Figure 6): log[(F0 − F)/F] = logK + nlog[Q] (4) where F0 and F are the fluorescence intensities of EB in the absence and presence of compound; [Q] is the compound concentration; K is the binding constant of compound with EB and n is the number of binding sites. K is the antilog of the intercept and n is the slope obtained from the plot of log[(F0 − F)/F] vs. […].
The affinity of the complexes for DNA was evaluated by a fluorescence technique using ethidium bromide (EB) bound to CT-DNA (EB-CT-DNA) solution in Tris-HCl buffer (pH = 7.20). EB is a planar cationic dye which is widely used as a sensitive fluorescence probe for native DNA. EB emits intense fluorescent light in the presence of DNA due to its strong intercalation between the adjacent DNA base-pairs. The changes in the fluorescence intensity at 602 nm (excitation at 545 nm) of EB-CT-DNA were measured with respect to the concentration of the copper(II) complexes. In fact, when it is removed, EB is non-emissive in Tris-HCl buffer solution (pH = 7.20), due to fluorescence quenching of the free EB by solvent molecules.

U87 cells = test: ROS generation, DCFH-DA assay, U87 cells; assay type: cell-based, human; settings: 1 × 10^−5 mol/L, 24 h
Description: (§4) To examine the effects of H2AcMe, H2BzMe and their complexes 1 and 2 on the generation of free radicals (reactive oxygen species, ROS), we used the 2',7'-dichlorodihydrofluorescein diacetate (DCFH-DA) assay.
(§5) ROS accumulation was detected using dichlorodihydrofluorescein diacetate (DCFH-DA, Sigma). DCFH-DA is a non-fluorescent compound, that when it is taken up by passive diffusion into the cells, is hydrolyzed by esterases to yield non-permeable DCFH. In the presence of ROS, DCFH is oxidized to the fluorescent DCF. Tumor cells were treated with the compounds for 24 h and were then incubated with DCFH-DA (1 × 10^−5 mol·L^−1) for 30 min at 37 °C. Following incubation, the cells were washed twice with PBS. Thereafter, the cells were observed under the fluorescent microscope Zeiss Axionplan coupled with a digital camera at excitation and emission wavelengths of 488 and 525 nm, respectively. Data were analyzed using ImageJ (ImageJ, National Institute of Health, Bethesda, MD, USA) and expressed as percentages of DCFDA fluorescence of the corresponding control.

MRC5 cells = test: ROS generation, DCFH-DA assay, MRC5 cells; assay type: cell-based, human; settings: 1 × 10^−5 mol/L, 24 h
Description: as §4, §5

## CC(=O)NN=C(C)c1ccccn1.[Cl][Cu][Cl] [compound 1, [dichloro(2-acetylpyridineacetyl-hydrazone)copper(II)]]
[1]
  IC50: 3.02 ± 0.85 µM
  selectivity index (SI = IC50MRC5/IC50tumor cell), U87: 7.45
[2]
  IC50: 5.08 ± 0.41 µM
  selectivity index (SI = IC50MRC5/IC50tumor cell), T98: 4.42
EB-CT-DNA
  apparent binding constant Kapp (EB-CT-DNA): 234000 M⁻¹
  number of binding sites n (EB-CT-DNA): 1.04 ± 0.01
  Stern-Volmer quenching constant Ksv (EB-CT-DNA): (2.35 ± 0.03) × 10^3 M^−1
  binding constant K (EB-CT-DNA, Scatchard): (0.35 ± 0.01) × 10^4 M^−1
  hypochromism in the EB-CT-DNA emission band at 602 nm: up to 24%
U87 cells
  ROS levels in U87 cells compared with T98 cells: higher levels of ROS in U87 cells
MRC5 cells
  ROS levels in MRC5 cells compared with glioma cells: lower levels of ROS in MRC5 cells

## CC(=O)NN=C(c1ccccc1)c1ccccn1.[Cl][Cu][Cl] [compound 2, [dichloro(2-benzoylpyridineacetylhydrazone)copper(II)]]
[1]
  IC50: 5.95 ± 0.74 µM
  selectivity index (SI = IC50MRC5/IC50tumor cell), U87: 8.30
[2]
  IC50: 29.4 ± 7.06 µM
  selectivity index (SI = IC50MRC5/IC50tumor cell), T98: 1.68
EB-CT-DNA
  apparent binding constant Kapp (EB-CT-DNA): 207000 M⁻¹
  number of binding sites n (EB-CT-DNA): 0.81 ± 0.02
  Stern-Volmer quenching constant Ksv (EB-CT-DNA): (2.05 ± 0.03) × 10^3 M^−1
  binding constant K (EB-CT-DNA, Scatchard): (0.38 ± 0.01) × 10^3 M^−1
  hypochromism in the EB-CT-DNA emission band at 602 nm: ≤ 20%
U87 cells
  ROS levels in U87 cells compared with T98 cells: equally effective in both cell lineages
MRC5 cells
  ROS levels in MRC5 cells compared with glioma cells: lower levels of ROS in MRC5 than in T98 glioma cells
